Reference: PubChem BioAssay (NCI)
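A five-concentration, 48-hour dose response in 96-well plates underlies each endpoint, interpolated linearly between surrounding concentrations. TGI: concentration producing complete growth inhibition.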

Tests used:
Assay in all cases: NCI-60 cell line screen, 48 h
OVCAR-8 ovarian = test system: OVCAR-8 ovarian
SF-539 CNS = test system: SF-539 CNS
MDA-N = test system: MDA-N
MCF7 breast = test system: MCF7 breast
SK-MEL-2 melanoma = test system: SK-MEL-2 melanoma
HCT-15 colon = test system: HCT-15 colon
IGROV1 ovarian = test system: IGROV1 ovarian
NCI-H226 lung = test system: NCI-H226 lung
EKVX NSCLC = test system: EKVX NSCLC
SK-OV-3 ovarian = test system: SK-OV-3 ovarian
BT-549 breast = test system: BT-549 breast
OVCAR-3 ovarian = test system: OVCAR-3 ovarian
K-562 leukemia = test system: K-562 leukemia
MALME-3M melanoma = test system: MALME-3M melanoma
A549 NSCLC = test system: A549 NSCLC
HT29 colon = test system: HT29 colon
MDA-MB-435 = test system: MDA-MB-435
CCRF-CEM leukemia = test system: CCRF-CEM leukemia
NCI-H23 lung = test system: NCI-H23 lung
RPMI-8226 leukemia = test system: RPMI-8226 leukemia
T-47D breast = test system: T-47D breast
M14 melanoma = test system: M14 melanoma
KM12 colon = test system: KM12 colon
UACC-62 melanoma = test system: UACC-62 melanoma
NCI-H460 lung = test system: NCI-H460 lung
SNB-19 CNS = test system: SNB-19 CNS
ACHN renal = test system: ACHN renal
MOLT-4 leukemia = test system: MOLT-4 leukemia
SR leukemia = test system: SR leukemia
U251 CNS = test system: U251 CNS
HOP-92 NSCLC = test system: HOP-92 NSCLC
OVCAR-4 ovarian = test system: OVCAR-4 ovarian
SF-268 CNS = test system: SF-268 CNS
OVCAR-5 ovarian = test system: OVCAR-5 ovarian
TK-10 renal = test system: TK-10 renal
COLO 205 colon = test system: COLO 205 colon
SK-MEL-5 melanoma = test system: SK-MEL-5 melanoma
HOP-62 NSCLC = test system: HOP-62 NSCLC
LOX IMVI melanoma = test system: LOX IMVI melanoma
RXF 393 renal = test system: RXF 393 renal
DU-145 prostate = test system: DU-145 prostate
SN12C renal = test system: SN12C renal
HCC-2998 colon = test system: HCC-2998 colon
SNB-75 CNS = test system: SNB-75 CNS
UACC-257 melanoma = test system: UACC-257 melanoma
PC-3 prostate = test system: PC-3 prostate
SF-295 CNS = test system: SF-295 CNS
SW-620 colon = test system: SW-620 colon
A498 renal = test system: A498 renal
SK-MEL-28 melanoma = test system: SK-MEL-28 melanoma
MDA-MB-231 breast = test system: MDA-MB-231 breast
CAKI-1 renal = test system: CAKI-1 renal
UO-31 renal = test system: UO-31 renal
NCI-H522 lung = test system: NCI-H522 lung
HCT-116 colon = test system: HCT-116 colon
NCI/ADR-RES ovarian = test system: NCI/ADR-RES ovarian
786-0 renal = test system: 786-0 renal

Measured: TGI

N#CC1=C2SCCN2C(=O)C(C#N)C12CCCCC2 (configuration not stated)
> 100 µM: all assays above
